Reference: PMC8211653, “Polθ inhibitors elicit BRCA-gene synthetic lethality and target PARP inhibitor resistance” (Nature Communications, 2021)

What was measured:
Polγ = target: T1, Polγ (Homo sapiens, UniProt P54098); assay: biochemical; design: inhibition of human DNA polymerases, selectivity assay
T1 construct: gene POLG
T1 sequence (P54098 1-1239): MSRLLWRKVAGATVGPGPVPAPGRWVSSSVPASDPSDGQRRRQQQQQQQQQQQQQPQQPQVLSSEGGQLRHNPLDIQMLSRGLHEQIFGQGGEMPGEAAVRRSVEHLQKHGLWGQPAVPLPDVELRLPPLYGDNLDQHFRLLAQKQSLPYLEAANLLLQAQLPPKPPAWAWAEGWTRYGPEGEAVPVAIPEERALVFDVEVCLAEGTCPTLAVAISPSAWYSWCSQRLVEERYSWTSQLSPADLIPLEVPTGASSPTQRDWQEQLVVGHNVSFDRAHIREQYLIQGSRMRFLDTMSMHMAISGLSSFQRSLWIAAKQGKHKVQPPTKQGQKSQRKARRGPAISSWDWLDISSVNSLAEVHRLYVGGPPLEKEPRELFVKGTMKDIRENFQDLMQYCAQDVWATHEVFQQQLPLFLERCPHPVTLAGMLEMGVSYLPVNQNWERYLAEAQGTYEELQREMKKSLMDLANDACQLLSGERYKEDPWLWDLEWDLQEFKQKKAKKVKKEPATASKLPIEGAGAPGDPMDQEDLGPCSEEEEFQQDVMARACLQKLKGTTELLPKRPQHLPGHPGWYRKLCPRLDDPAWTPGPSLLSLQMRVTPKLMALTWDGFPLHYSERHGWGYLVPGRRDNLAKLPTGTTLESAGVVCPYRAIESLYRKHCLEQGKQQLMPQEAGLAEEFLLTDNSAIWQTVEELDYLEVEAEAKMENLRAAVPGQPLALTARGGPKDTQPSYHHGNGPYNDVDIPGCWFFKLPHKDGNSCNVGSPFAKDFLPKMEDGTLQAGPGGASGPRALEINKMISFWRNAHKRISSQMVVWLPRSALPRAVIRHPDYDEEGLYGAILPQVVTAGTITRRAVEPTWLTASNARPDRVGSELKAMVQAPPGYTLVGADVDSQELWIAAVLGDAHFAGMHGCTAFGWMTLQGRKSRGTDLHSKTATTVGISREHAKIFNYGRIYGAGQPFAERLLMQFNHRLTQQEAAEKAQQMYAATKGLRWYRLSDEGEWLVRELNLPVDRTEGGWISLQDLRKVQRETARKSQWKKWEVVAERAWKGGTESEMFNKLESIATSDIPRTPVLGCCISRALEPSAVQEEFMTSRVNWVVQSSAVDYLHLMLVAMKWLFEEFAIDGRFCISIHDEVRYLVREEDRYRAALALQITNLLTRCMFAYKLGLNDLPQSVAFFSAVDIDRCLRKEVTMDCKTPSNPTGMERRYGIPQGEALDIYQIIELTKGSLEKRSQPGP

Polα = target: T2, Polα (Homo sapiens, UniProt P09884); assay: biochemical; design: inhibition of human DNA polymerases, selectivity assay
T2 construct: gene POLA1
T2 sequence (P09884 1-1462): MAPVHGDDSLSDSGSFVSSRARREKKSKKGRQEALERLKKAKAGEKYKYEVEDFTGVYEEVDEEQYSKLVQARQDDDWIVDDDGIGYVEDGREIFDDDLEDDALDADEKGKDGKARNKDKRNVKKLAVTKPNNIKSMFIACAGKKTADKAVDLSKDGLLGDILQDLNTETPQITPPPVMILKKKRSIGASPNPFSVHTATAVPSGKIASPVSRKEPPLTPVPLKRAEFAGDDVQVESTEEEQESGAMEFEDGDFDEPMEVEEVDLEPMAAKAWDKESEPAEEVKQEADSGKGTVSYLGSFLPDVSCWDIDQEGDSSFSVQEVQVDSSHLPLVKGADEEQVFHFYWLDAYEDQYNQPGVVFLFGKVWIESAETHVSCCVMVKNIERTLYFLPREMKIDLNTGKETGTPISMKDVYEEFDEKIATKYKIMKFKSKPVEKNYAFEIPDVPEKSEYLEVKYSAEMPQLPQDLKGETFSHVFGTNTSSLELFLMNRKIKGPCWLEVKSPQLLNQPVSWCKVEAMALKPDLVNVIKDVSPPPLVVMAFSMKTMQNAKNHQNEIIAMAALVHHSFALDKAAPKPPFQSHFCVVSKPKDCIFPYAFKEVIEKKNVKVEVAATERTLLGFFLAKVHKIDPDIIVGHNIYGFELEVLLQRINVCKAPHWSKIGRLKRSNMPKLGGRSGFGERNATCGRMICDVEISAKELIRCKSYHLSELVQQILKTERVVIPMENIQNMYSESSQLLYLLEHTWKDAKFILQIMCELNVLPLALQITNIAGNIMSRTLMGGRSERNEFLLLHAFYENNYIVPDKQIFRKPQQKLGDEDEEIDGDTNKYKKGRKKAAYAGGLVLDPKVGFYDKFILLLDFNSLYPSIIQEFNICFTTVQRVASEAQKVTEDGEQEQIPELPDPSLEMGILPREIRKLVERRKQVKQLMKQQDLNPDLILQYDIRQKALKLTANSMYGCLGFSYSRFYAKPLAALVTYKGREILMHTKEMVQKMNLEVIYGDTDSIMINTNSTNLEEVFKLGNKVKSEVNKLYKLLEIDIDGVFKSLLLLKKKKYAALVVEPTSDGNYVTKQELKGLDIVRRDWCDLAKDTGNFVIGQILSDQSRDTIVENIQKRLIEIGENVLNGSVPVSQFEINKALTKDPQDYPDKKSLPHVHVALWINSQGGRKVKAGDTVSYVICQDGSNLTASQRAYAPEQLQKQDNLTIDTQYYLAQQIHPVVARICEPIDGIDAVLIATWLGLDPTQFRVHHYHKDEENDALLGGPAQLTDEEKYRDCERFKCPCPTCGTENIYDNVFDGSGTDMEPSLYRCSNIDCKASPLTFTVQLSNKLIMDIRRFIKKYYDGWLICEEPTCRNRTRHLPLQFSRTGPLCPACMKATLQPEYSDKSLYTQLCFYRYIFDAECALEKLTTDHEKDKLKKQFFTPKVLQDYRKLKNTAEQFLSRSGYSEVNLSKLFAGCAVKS

Polη = target: T3, Polη (Homo sapiens, UniProt Q9Y253); assay: biochemical; design: inhibition of human DNA polymerases, selectivity assay
T3 construct: gene POLH
T3 sequence (Q9Y253 1-713): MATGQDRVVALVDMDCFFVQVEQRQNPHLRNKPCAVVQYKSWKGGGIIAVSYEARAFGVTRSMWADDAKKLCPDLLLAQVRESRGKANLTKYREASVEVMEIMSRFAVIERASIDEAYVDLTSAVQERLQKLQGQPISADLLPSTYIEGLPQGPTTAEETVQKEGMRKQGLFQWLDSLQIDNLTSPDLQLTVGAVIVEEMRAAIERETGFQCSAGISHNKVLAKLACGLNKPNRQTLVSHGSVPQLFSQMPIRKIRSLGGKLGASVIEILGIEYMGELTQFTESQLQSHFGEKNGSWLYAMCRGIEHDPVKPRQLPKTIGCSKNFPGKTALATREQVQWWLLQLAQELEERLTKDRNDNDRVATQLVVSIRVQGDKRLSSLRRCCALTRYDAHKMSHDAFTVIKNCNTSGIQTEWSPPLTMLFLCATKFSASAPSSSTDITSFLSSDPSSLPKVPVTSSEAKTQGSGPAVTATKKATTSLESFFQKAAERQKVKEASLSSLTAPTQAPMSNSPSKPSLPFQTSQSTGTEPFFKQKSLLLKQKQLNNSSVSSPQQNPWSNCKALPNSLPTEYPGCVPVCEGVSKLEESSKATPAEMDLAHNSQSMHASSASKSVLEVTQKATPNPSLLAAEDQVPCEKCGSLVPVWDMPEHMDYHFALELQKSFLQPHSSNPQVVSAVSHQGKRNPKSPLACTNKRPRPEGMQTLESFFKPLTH

Polν = target: T4, Polν (Homo sapiens, UniProt Q7Z5Q5); assay: biochemical; design: inhibition of human DNA polymerases, selectivity assay
T4 construct: gene POLN
T4 sequence (Q7Z5Q5 1-900): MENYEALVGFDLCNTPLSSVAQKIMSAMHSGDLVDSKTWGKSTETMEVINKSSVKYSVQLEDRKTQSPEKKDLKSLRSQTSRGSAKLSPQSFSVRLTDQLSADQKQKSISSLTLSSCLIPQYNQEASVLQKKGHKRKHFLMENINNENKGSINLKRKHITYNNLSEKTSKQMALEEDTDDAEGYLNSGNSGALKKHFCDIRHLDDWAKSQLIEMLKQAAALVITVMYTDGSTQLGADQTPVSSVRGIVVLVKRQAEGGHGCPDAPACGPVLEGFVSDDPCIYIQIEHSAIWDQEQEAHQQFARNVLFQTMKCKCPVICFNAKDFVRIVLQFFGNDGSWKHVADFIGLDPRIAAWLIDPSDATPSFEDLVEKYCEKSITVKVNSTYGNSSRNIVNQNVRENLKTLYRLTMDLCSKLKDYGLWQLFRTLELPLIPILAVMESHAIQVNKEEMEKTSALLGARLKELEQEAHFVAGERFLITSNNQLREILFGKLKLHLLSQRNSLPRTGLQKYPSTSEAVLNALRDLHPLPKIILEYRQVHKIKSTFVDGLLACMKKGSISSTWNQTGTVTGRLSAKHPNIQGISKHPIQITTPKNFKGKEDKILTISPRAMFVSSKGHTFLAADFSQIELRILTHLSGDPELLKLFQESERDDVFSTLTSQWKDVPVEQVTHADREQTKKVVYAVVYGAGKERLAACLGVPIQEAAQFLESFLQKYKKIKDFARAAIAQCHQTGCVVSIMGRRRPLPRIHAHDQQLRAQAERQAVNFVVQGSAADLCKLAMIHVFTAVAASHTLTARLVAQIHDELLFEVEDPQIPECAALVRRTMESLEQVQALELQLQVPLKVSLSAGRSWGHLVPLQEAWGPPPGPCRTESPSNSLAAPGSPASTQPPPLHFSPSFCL

DNA polymerase Polθ = target: T5, DNA polymerase Polθ (Homo sapiens, UniProt O75417); assay: PicoGreen DNA primer extension assay with recombinant full-length enzyme; supported by DNA-dependent DSF stabilisation and mechanism-of-action kinetics; assay type: biochemical
T5 construct: gene POLQ; full-length (residues 2–2590)
T5 sequence (O75417 2-2590): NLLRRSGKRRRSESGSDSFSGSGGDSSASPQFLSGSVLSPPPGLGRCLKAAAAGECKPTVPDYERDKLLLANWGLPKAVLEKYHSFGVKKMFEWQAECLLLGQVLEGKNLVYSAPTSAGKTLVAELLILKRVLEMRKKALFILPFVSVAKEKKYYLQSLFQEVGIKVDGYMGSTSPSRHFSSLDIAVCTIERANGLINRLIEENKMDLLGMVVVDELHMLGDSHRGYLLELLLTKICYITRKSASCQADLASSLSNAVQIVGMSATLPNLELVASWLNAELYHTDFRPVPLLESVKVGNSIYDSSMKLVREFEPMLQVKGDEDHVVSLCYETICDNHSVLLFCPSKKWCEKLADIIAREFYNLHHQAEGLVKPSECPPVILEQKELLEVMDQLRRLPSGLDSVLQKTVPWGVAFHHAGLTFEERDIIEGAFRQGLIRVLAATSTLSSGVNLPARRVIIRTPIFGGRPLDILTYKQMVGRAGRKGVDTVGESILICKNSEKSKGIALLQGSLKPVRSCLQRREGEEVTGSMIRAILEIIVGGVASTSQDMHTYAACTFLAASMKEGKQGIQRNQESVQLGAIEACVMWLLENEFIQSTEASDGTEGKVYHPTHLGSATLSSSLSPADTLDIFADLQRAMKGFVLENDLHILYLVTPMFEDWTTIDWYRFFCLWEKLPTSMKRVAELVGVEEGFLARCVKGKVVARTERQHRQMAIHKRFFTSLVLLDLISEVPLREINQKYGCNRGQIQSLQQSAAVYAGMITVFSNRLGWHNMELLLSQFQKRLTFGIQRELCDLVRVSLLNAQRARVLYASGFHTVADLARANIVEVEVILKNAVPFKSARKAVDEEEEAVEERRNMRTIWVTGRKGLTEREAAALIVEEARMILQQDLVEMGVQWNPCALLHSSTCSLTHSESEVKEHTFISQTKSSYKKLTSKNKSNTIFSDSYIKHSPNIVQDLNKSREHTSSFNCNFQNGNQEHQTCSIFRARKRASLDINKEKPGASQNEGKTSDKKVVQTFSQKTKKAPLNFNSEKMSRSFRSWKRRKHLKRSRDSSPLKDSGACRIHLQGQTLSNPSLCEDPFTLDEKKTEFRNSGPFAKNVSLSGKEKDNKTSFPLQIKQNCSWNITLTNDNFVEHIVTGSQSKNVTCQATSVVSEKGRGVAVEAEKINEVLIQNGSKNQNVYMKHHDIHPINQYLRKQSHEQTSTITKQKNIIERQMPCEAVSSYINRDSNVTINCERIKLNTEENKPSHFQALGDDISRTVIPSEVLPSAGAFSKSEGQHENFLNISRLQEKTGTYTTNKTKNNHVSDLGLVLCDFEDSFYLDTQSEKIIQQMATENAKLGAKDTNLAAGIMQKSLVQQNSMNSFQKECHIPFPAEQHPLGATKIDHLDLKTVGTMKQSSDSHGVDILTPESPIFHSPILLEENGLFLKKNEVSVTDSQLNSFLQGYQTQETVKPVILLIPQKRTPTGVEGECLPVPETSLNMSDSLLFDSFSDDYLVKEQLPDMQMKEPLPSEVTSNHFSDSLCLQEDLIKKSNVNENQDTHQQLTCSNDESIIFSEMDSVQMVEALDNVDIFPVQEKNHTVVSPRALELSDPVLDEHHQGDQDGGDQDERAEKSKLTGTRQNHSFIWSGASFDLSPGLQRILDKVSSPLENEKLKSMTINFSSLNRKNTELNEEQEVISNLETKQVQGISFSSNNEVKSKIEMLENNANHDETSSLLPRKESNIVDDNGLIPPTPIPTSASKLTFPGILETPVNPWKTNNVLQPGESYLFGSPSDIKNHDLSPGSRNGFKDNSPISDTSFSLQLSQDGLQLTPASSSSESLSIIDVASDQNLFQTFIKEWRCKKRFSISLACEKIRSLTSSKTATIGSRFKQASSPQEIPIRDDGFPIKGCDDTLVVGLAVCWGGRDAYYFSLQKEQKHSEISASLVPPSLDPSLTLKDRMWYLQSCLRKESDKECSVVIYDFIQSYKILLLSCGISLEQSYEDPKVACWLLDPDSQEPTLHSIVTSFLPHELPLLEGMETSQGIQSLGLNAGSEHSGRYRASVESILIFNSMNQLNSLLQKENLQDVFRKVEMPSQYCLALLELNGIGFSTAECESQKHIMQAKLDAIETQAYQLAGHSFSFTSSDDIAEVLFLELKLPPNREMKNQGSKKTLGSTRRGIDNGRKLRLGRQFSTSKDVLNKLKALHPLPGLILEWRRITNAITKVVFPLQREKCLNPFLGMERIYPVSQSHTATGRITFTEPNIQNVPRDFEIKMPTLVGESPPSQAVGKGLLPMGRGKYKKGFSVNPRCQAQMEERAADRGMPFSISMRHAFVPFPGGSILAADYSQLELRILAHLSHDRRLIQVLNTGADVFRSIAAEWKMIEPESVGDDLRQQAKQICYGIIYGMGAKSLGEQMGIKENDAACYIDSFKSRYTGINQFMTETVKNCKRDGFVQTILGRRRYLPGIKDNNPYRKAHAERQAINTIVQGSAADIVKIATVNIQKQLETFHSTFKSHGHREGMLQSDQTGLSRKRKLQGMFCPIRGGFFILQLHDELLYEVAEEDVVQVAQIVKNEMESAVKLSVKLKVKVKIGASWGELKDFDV

- IC50 (Polγ): > 100 µM
- IC50 (Polα): > 100 µM
- IC50 (Polη): > 100 µM
- IC50 (Polν): > 100 µM
- IC50 (DNA polymerase Polθ): 0.0079 µM
Compound: Cc1cccc(N(C)C(=O)[C@@H]2[C@H](O)CCN2c2nc(C)cc(C(F)(F)F)c2C#N)c1 [ART558]
